The values below come from patent publication US6680336B2, “Cyclic AMP-specific phosphodiesterase inhibitors” (ICOS Corporation, priority 1999, dated 2004).

Read-outs that look alike come from different tables or passages of the source.

Data set [1] deals with T1, recombinant human PDE4.
T1 construct: PDE4 IC50; other: human recombinant PDE4
Put plainly: PDE4 inhibition, charcoal separation [32P]cAMP phosphodiesterase assay. Format: biochemical. The protocol:
The compounds of structural formula (II) were tested for an ability to inhibit PDE4. The ability of a compound to inhibit PDE4 activity is related to the IC50 value for the compound, i.e., the concentration of inhibitor required for 50% inhibition of enzyme activity. The IC50 value for compounds of structural formula (II) were determined using recombinant human PDE4.
Recombinant production of human PDE1B, PDE2, PDE4A, PDE4B, PDE4C, PDE4D, PDE5, and PDE7 was carried out similarly to that described in Example 7 of U.S. Pat. No. 5,702,936, incorporated herein by reference, except that the yeast transformation vector employed, which is derived from the basic ADH2 plasmid described in Price et al., Methods in Enzymology, 185, pp. 308-318 (1990), incorporated yeast ADH2 promoter and terminator sequences and the Saccharomyces cerevisiae host was the protease-deficient strain BJ2-54 deposited on Aug. 31, 1998 with the American Type Culture Collection, Manassas, Va., under accession number ATCC 74465. Transformed host cells were grown in 2×SC-leu medium, pH 6.2, with trace metals, and vitamins. After 24 hours, YEP medium-containing glycerol was added to a final concentration of 2×YET/3% glycerol. Approximately 24 hr later, cells were harvested, washed, and stored at −70° C.
Phosphodiesterase activity of the preparations was determined as follows. PDE assays utilizing a charcoal separation technique were performed essentially as described in Loughney et al. (1996). In this assay, PDE activity converts [32P]cAMP or [32P]cGMP to the corresponding [32P]5′-AMP or [32P]5′-GMP in proportion to the amount of PDE activity present. The [32P]5′-AMP or [32P]5′-GMP then was quantitatively converted to free [32P]phosphate and unlabeled adenosine or guanosine by the action of snake venom 5′-nucleotidase. […] The assay was performed at 30° C. in a 100 μL reaction mixture containing (final concentrations) 40 mM Tris HCl (pH 8.0), 1 μM ZnSO4, 5 mM MgCl2, and 0.1 mg/mL bovine serum albumin (BSA). Alternatively, in assays assessing PDE1-specific activity, incubation mixtures further incorporated the use of 0.1 mM CaCl2 and 10 μg/mL calmodulin. PDE enzyme was present in quantities that yield <30% total hydrolysis of substrate (linear assay conditions). The assay was initiated by addition of substrate (1 mM [32P]cAMP or cGMP), and the mixture was incubated for 12 minutes. Seventy-five (75) μg of Crotalus atrox venom then was added, and the incubation was continued for 3 minutes (15 minutes total). The reaction was stopped by addition of 200 μL of activated charcoal (25 mg/mL suspension in 0.1 M […], pH 4). After centrifugation (750×g for 3 minutes) to sediment the charcoal, a sample of the supernatant was taken for radioactivity determination in a scintillation counter and the PDE activity was calculated.
Inhibitor analyses were performed similarly to the method described in Loughney et al., J. Biol. Chem., 271, pp. 796-806 (1996), except both cGMP and cAMP were used, and substrate concentrations were kept below 32 nM, which is far below the Km of the tested PDEs.

The test system of another data set is female Balb/c mice. Put plainly: Combined mouse endotoxin-stimulated TNFα release and locomotor activity assay (mobility). The class given is in vivo. The protocol: The purpose of this study was to determine the efficacy of PDE4 inhibitors in vivo in an LPS mouse model together with a determination with respect to central nervous system (CNS) side-effects manifested by a decrease in spontaneous mobility.
The test animals were female Balb/c mice, having an average weight of about 20 g. […] Individual dose volumes (about 150 μL) were adjusted based on the body weights measured. One hour later, 5 mg/kQ LPS in a final volume of 200 μL was injected via the tail vein to each animal. Ninety minutes following the LPS treatment, the animals were bled and serum samples were collected before being stored at −70° C. until assayed.
Movement of the X-Y plane, or rearing up on the hind legs, was quantified by counting the number of “light-beam” crosses per unit of time. A decrease in the number of activity events is directly proportional to the mobility or immobilization of the animal. The quantitative scoring correlated well with the subjective measurements described above.
The following table summarizes the mouse locomotor activity assay as mobility (% activity) obtained by the above-described method: […]

Data set [2] relates to TNFα secretion in human peripheral blood lymphocytes. Kind of data set: Lipopolysaccharide-stimulated TNFα release from human peripheral blood lymphocytes. The following applies: for EC50: Lymphocyte, LPS-stimulated TNFα release from human PBL. Format: cell-based. The procedure:
The compounds of structural formula (II) also were tested for an ability to reduce TNFα secretion in human peripheral blood lymphocytes. The ability to reduce TNFα secretion is related to the EC50 values i.e., the effective concentration pf the compound capable of inhibiting 50% of the total TNFα).
To assess the ability of a compound to reduce TNFα secretion in human peripheral blood lymphocytes (PBL), the following tests were performed.
Heparinized blood (approximately 30 mL) drawn from human volunteers was mixed 1:1 with Dulbecco's modified phosphate-buffered saline. This mixture was mixed 1:1 with HISTOPAQUE® and centrifuged at 1,500 rpm at room temperature without braking in the swinging bucket of a Beckman model TJ6 centrifuge. Erythrocytes were centrifuged to the bottom of the tubes, and serum remained at the surface of the tubes. A layer containing lymphocytes sedimented between the serum and HISTOPAQUE® layers, and was removed by aspiration to a fresh tube. The cells were quantified and adjusted to […] and a 100 μL aliquot is placed into the wells of a 96 well plate. Test compounds and RPMI media (Gibco/BRL Life Sciences) are added to each of the wells 15 minutes prior to addition of bacterial LPS ([…]). The mixture was allowed to incubate for 20 hours at 37° C. in a humidified chamber. The cells then were separated by centrifuging at 800 rpm for 5 minutes at room temperature. An aliquot of 180 μL of supernatant was transferred to a new plate for determination of TNFα concentration. TNFα protein in the cell supernatant fluids was measured using a commercially available enzyme-linked immunosorbent assay (ELISA) (CYTOSCREEN® Immunoassay Kit from Biosource International).
The cell-based assay provided the following results for various pyrrolidine compounds of the present invention. The EC50 values (i.e., effective concentration of the compound capable of inhibiting 50% of the total TNFα) illustrate the ability of the present compounds to inhibit LPS-stimulated TNFα release from human PBL.

For data set [3] the following is noted: in vivo; cited from earlier work.
Data set [4] deals with recombinant human PDE4. The following applies: reported value; read-out: IC50 with respect to inhibiting recombinant human PDE4; cited from earlier work.

For orientation: IC50 means the midpoint of a concentration-inhibition curve. The EC50 is the midpoint of the concentration-response curve. A higher EC50 goes with a need for much substance. As to `CNC(C)[C@]1(C)CN(C(=O)OC)C[C@H]1c1ccc(OC)c(OC2CCCC2)c1` (mixture of isomers) [Example 19, Methyl (3S,4S)-4-(3-cyclopentyloxy-4-methoxyphenyl)-3-methyl-3-[(methylamino)ethylpyrrolidine Carboxylate], the IC50 at recombinant human PDE4 [1] worked out at 0.0517 µM. In addition, in the data set on female Balb/c mice, the “Mobility (% activity at 50 mg/kg dose)” value amounted to 145%. For the same molecule, the midpoint of the response in data set [2], the EC50, lay at 0.059 µM.

For `COc1ccc([C@@H]2CNC(=O)C2)cc1OC1CCCC1` (single isomer, unassigned) [(−)-enantiomer of rolipram], in data set [3], the “Emetic potential relative to the (+)-enantiomer” value is on record as “about ten-fold more emetic than the (+)-enantiomer”.

Take `COc1ccc([C@@H]2CN(Cc3ccccc3)C[C@@]2(C)C(C)N)cc1OC1CCCC1` (single isomer, unassigned) [Example 9]: the IC50 at recombinant human PDE4 [1] worked out at 0.0575 µM. Moreover, the “Mobility (% activity at 50 mg/kg dose)” value with female Balb/c mice turned out to be 55%. The molecule further returned an EC50 in data set [2] of 0.609 µM.

With `COc1ccc(C2CN(Cc3ccccc3)C[C@@]2(C)C(C)N)cc1OC1CCCC1` (stereo partly shown) [Example 20], the IC50 at recombinant human PDE4 [1] is 0.022 µM. The “Mobility (% activity at 50 mg/kg dose)” value with female Balb/c mice was found to be 93%. In data set [2], the response was half-maximal at 0.198 µM (EC50).

As to `COc1ccc(C2CNC(=O)C2)cc1OC1CCCC1` (stereo not shown) [Rolipram, reference compound], in the data set on recombinant human PDE4 [4], the IC50 was ~0.2 µM. Moreover, in data set [2] (preliminary experiments), the “LPS-induced TNFα secretion from human lymphocytes” value was “inhibit LPS-induced TNFα secretion from human lymphocytes in a dose-dependent fashion”.

Consider `COC(=O)N1CC(c2ccc(OC)c(OC3CCCC3)c2)C(C)(C(C)=O)C1` (stereo not shown) [structural formula (I)], for which the IC50 with recombinant human PDE4 [4] was ~0.002 µM.
